Measured values reported in patent publication US12478634B2, “Compositions and methods for treating muscular dystrophy and other disorders” (The Charlotte Mecklenburg Hospital Authority, priority 2016, dated 2025).

Legend:
[1] = system: epithelial cells; experiment: IIH6 membrane staining of glycosylated α-DG in treated epithelial cells; assay type: cell-based; details: 3 days culture with agent, vs control
Description: The white lines represent the membrane staining with the antibody. […] Cells are grown in culture medium and active reagents were added one day later and culture for further 3 days with the described concentration. The cells were then washed, fixed and stained with IIH6 antibody for the expression of glycosylated a-DG. The positive signals present as membrane staining (white lines and circles here) which are only detected in the majority of the treated samples, but hardly seen in the control.

[2] = system: MCF-7 cells; experiment: FACS for expression of glycosylated alpha-DG after ribitol treatment; assay type: cell-based; details: MCF-7, 10 mM ribitol for 3 days; untreated controls 45%
Description: FIG. 1. Fluorescence-activated cell sorting (FACS) for the enhanced expression of glycosylated alpha-DG after ribitol treatment. The breast cancer cell line MCF-7 was seeded in T25 culture flasks and cultured to 75% confluence in DMEM 10% FBS, and then treated with 10 mM ribitol in the same growth medium for 3 days. The cells were then collected by gentle scrapping and washed twice with PBS. The cells were resuspended in 100 microliter PBS and stained with monoclonal antibody IIH6 (Millipore EMD, 1:100 dilution) for 40 minutes and detected with secondary Alexa 594-labeled goat anti-mouse IgM (Invitrogen). The stained cells were washed and then FACS analyzed for the percentage of positive cells and the signal intensity (Alexa594.007). […]
Fluorescence-activated cell sorting (FACS) was used to show enhanced expression of glycosylated alpha-DG after ribitol treatment. […] The cells were resuspended in 100 microliter PBS and stained with monoclonal antibody IIH6 (Millipore EMD, 1:100 dilution) for 40 minutes and detected with secondary Alexa 594-labeled goat anti-mouse IgM (Invitrogen). The stained cells were washed and then FACS analyzed for the percentage of positive cells and the signal intensity (Alexa594.007). […]

[3] = system: FKRP and LARGE transcripts; experiment: Quantitative real-time PCR of FKRP and LARGE transcripts; assay type: in vivo, mouse; details: cardiac muscle, limb muscle and diaphragm
Description: Quantitative reverse transcriptase PCR assay. Tissues were collected from heart, diaphragm and tibialis anterior. RNA was extracted using TRIzol (Invitrogen) following the supplied protocol. Final RNA pellet was re-suspended in 20 μl RNAse-nuclease free water. Final RNA concentration was determined using Nanodrop 2000c. One […] of RNA was subsequently converted to cDNA using the High-Capacity RNA-to-cDNA™ Kit (Applied Biosystems) following the supplied protocol. cDNA was then used for quantitative real-time PCR using the mouse FKRP-FAM (Mm00557870 ml) and LARGE-FAM (Mm00521885_ml) taqman assay with primer limited GAPDH-VIC (Mm99999915_g1) as the internal control and TaqMan® Universal Master Mix II, with UNG (Life Technologies). […] Results of FKRP and LARGE transcript were calculated and expressed as 2^−ΔΔCt and compared across tissues and animals.

[4] = system: epithelial cells; experiment: IIH6 blot of glycosylated α-DG from treated epithelial cells; assay type: cell-based; details: 3 days culture with agent
Description: Lane 1, control untreated cells; Lane 4, cells treated with ribulose-5-phosphate; Lane 5, cells treated with glucose. […] Cells are grown in culture medium and active reagents were added one day later and culture for further 3 days with the active agent. The cells were then collected, homogenized, blotted onto membrane and detected with 1H6 antibody for the expression of glycosylated a-DG. The black large spot represents the expression of the glycosylated a-DG, with higher intensity indicating higher levels.

| Structure (SMILES) | glycosylated α-DG membrane staining (IIH6) [1] | positive cells for glycosylated alpha-DG (IIH6 antibody) [2] [%] | FKRP and LARGE transcript levels, treated vs untreated [3] | functionally glycosylated alpha-DG on blot [4] |
| --- | --- | --- | --- | --- |
| Nc1ccn([C@@H]2O[C@H](COP(=O)(O)OP(=O)(O)OC[C@@H](O)[C@@H](O)[C@@H](O)CO)[C@@H](O)[C@H]2O)c(=O)n1 [CDP-ribitol] | positive signals are identified in the majority of the cells | – | – | – |
| OC[C@@H](O)[C@@H](O)[C@@H](O)CO [ribitol] | positive signals are identified in the majority of the cells | 82 | No statistically significant difference | observed visually |
| O=C(CO)[C@H](O)[C@H](O)COP(=O)(O)O [ribulose-5-phosphate, reference compound] | – | – | – | barely detectable |
| O=C(CO)[C@H](O)[C@H](O)CO [ribulose] | positive signals are identified in the majority of the cells | – | – | observed visually |
